In the supplement of paper PMC11451515:

Assays:
Conditions in all cases: 48 h
[1] = tested on: SEM cells; experiment: AUC of viability dose-response curve (% viability x log10 dose units); higher = less sensitive
In short: (§1)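 Area under the curve was integrated by trapezoidal rule from a log-logistic fit of normalised viability, with curves exceeding full viability scaled and quality-control failures removed. The fit had four parameters over log10 doses. Viability came from CellTiter-Glo One luminescence, normalised per plate to DMSO and cell-free wells, after leukemia cells adapted to each medium (500 or 1000 cells/well, 1536-well plates) were exposed to library compounds in DMSO for 48 h at 37°C. The 11 threefold doses ran from 47 μM to 0.79 nM.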

[2] = tested on: P12-Ichikawa; experiment: as above
In short: as §1

[3] = tested on: NOMO1; experiment: as above
In short: as §1

[4] = tested on: SEM cells; experiment: cell viability relative to DMSO control; higher = less cytotoxic
In short: (§2)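 Library compounds in DMSO were pin-dosed in an 11-point threefold series (47 μM to 0.79 nM) onto leukemia cells in 1536-well plates (5 μl). Plates held 500 cells/well of NOMO1 or SEM or 1000 cells/well of P12-Ichikawa, each adapted for at least four passages in each medium. Luminescence was read with CellTiter-Glo One after 48 h at 37°C. Viability means the per-plate percentage relative to DMSO wells, using cell-free wells as background.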

[5] = tested on: P12-Ichikawa; experiment: as above
In short: as §2

[6] = tested on: NOMO1; experiment: as above
In short: as §2

N[C@@H](Cc1c[nH]c2ccc(O)cc12)C(=O)O
AUC of viability dose-response curve
Conditions | [1] | [2] | [3]
HPLM + 10% dialyzed FBS | 454 | 462 | 391
RPMI 5 mM glucose + 10% FBS | 401 | 444 | 411
RPMI 5 mM glucose + 10% dialyzed FBS | 398 | 458 | 392

[4], HPLM + 10% dialyzed FBS
Conditions | cell viability [%]
0.000781 µM | 114
0.00234 µM | 110
0.00702 µM | 120
0.0211 µM | 120
0.0632 µM | 94.1
0.19 µM | 121
0.569 µM | 105
1.71 µM | 110
5.12 µM | 102
15.4 µM | 85
46.1 µM | 80.8

Cn1cnc2c(F)c(Nc3ccc(Br)cc3Cl)c(C(=O)NOCCO)cc21
AUC of viability dose-response curve
Conditions | [1] | [2] | [3]
HPLM + 10% dialyzed FBS | 295 | 295 | 260
RPMI 5 mM glucose + 10% FBS | 278 | 295 | 289
RPMI 5 mM glucose + 10% dialyzed FBS | 273 | 299 | 258

CC[C@@H](C(N)=O)N1CCCC1=O
AUC of viability dose-response curve
Conditions | [1] | [2] | [3]
HPLM + 10% dialyzed FBS | 450 | 458 | 442
RPMI 5 mM glucose + 10% FBS | 420 | 460 | 466
RPMI 5 mM glucose + 10% dialyzed FBS | 443 | 467 | 456

CNC(=O)c1cc(Oc2ccc(NC(=O)Nc3ccc(Cl)c(C(F)(F)F)c3)cc2)ccn1
AUC of viability dose-response curve
Conditions | [1] | [2] | [3]
HPLM + 10% dialyzed FBS | 278 | 457 | 445
RPMI 5 mM glucose + 10% FBS | 313 | 448 | 448
RPMI 5 mM glucose + 10% dialyzed FBS | 317 | 448 | 432

cell viability [%], [4]
Conditions | RPMI 5 mM glucose + 10% FBS | RPMI 5 mM glucose + 10% dialyzed FBS
0.000781 µM | 108 | 109
0.00234 µM | 112 | 108
0.00702 µM | 89.1 | 98.8
0.0211 µM | 89.8 | 79.3
0.0632 µM | 70.8 | 64.7
0.19 µM | 57.1 | 57.8
0.569 µM | 54 | 59.7
1.71 µM | 75.3 | 63.8
5.12 µM | 63.9 | 72.1
15.4 µM | 63 | 68.9
46.1 µM | 5.7 | 11.6

FC(F)(F)C1=CC=C2C(SCCCCCO\C3=C\O\C(CN4CCOCC4)=C/C3=O)=CC=NC2=C1
AUC of viability dose-response curve
Conditions | HPLM + 10% dialyzed FBS | RPMI 5 mM glucose + 10% FBS | RPMI 5 mM glucose + 10% dialyzed FBS
[2] | 464 | 457 | 461
[3] | 470 | 477 | 469

cell viability [%]
Conditions | [4] | [5] | [6]
HPLM + 10% dialyzed FBS, 0.000781 µM | 92.4 | 107 | 96
HPLM + 10% dialyzed FBS, 0.00234 µM | 106 | 122 | 122
HPLM + 10% dialyzed FBS, 0.00702 µM | 107 | 123 | 144
HPLM + 10% dialyzed FBS, 0.0211 µM | 106 | 120 | 119
HPLM + 10% dialyzed FBS, 0.0632 µM | 108 | 129 | 122
HPLM + 10% dialyzed FBS, 0.19 µM | 115 | 126 | 139
HPLM + 10% dialyzed FBS, 0.569 µM | 111 | 132 | 137
HPLM + 10% dialyzed FBS, 1.71 µM | 119 | 123 | 128
HPLM + 10% dialyzed FBS, 5.12 µM | 112 | 123 | 131
HPLM + 10% dialyzed FBS, 15.4 µM | 106 | 107 | 124
HPLM + 10% dialyzed FBS, 46.1 µM | 96.2 | 88.1 | 107
RPMI 5 mM glucose + 10% FBS, 0.000781 µM | 66.6 | 110 | 116
RPMI 5 mM glucose + 10% FBS, 0.00234 µM | 74.4 | 119 | 124
RPMI 5 mM glucose + 10% FBS, 0.00702 µM | 69 | 109 | 107
RPMI 5 mM glucose + 10% FBS, 0.0211 µM | 67.2 | 114 | 103
RPMI 5 mM glucose + 10% FBS, 0.0632 µM | 63.7 | 113 | 118
RPMI 5 mM glucose + 10% FBS, 0.19 µM | 72.9 | 109 | 135
RPMI 5 mM glucose + 10% FBS, 0.569 µM | 77.8 | 125 | 118
RPMI 5 mM glucose + 10% FBS, 1.71 µM | 65.4 | 121 | 121
RPMI 5 mM glucose + 10% FBS, 5.12 µM | 66.1 | 111 | 122
RPMI 5 mM glucose + 10% FBS, 15.4 µM | 69.4 | 94.4 | 112
RPMI 5 mM glucose + 10% FBS, 46.1 µM | 61.9 | 66 | 109
RPMI 5 mM glucose + 10% dialyzed FBS, 0.000781 µM | 112 | 112 | 99.3
RPMI 5 mM glucose + 10% dialyzed FBS, 0.00234 µM | 113 | 118 | 118
RPMI 5 mM glucose + 10% dialyzed FBS, 0.00702 µM | 104 | 113 | 105
RPMI 5 mM glucose + 10% dialyzed FBS, 0.0211 µM | 110 | 116 | 114
RPMI 5 mM glucose + 10% dialyzed FBS, 0.0632 µM | 102 | 130 | 131
RPMI 5 mM glucose + 10% dialyzed FBS, 0.19 µM | 112 | 116 | 112
RPMI 5 mM glucose + 10% dialyzed FBS, 0.569 µM | 115 | 127 | 125
RPMI 5 mM glucose + 10% dialyzed FBS, 1.71 µM | 110 | 119 | 129
RPMI 5 mM glucose + 10% dialyzed FBS, 5.12 µM | 99 | 115 | 114
RPMI 5 mM glucose + 10% dialyzed FBS, 15.4 µM | 102 | 104 | 109
RPMI 5 mM glucose + 10% dialyzed FBS, 46.1 µM | 85.7 | 78 | 92.4

CC1=CC=C(C=C1)N(C\C2=N\CCN2)C3=CC=CC(=C3)O
AUC of viability dose-response curve
Conditions | [1] | [2] | [3]
HPLM + 10% dialyzed FBS | 454 | 473 | 352
RPMI 5 mM glucose + 10% FBS | 464 | 452 | 403
RPMI 5 mM glucose + 10% dialyzed FBS | 468 | 459 | 407

[4], HPLM + 10% dialyzed FBS
Conditions | cell viability [%]
0.000781 µM | 118
0.00234 µM | 114
0.00702 µM | 122
0.0211 µM | 120
0.0632 µM | 117
0.19 µM | 126
0.569 µM | 132
1.71 µM | 131
5.12 µM | 131
15.4 µM | 131
46.1 µM | 68.4

OCCn1cc(-c2ccc3c(c2)CC/C3=N\O)c(-c2ccncc2)n1
AUC of viability dose-response curve
Conditions | [1] | [2] | [3]
HPLM + 10% dialyzed FBS | 462 | 444 | 464
RPMI 5 mM glucose + 10% FBS | 465 | 450 | 468
RPMI 5 mM glucose + 10% dialyzed FBS | 472 | 440 | 472

COC/1=C/[C@@H]2[C@@H]3CC4=C(C(=C(OC)C=C4)O)[C@]2(CCN3C)CC1=O
AUC of viability dose-response curve
Conditions | [1] | [2] | [3]
HPLM + 10% dialyzed FBS | 472 | 473 | 476
RPMI 5 mM glucose + 10% FBS | 469 | 467 | 459
RPMI 5 mM glucose + 10% dialyzed FBS | 464 | 466 | 471

cell viability [%]
Conditions | HPLM + 10% dialyzed FBS | RPMI 5 mM glucose + 10% FBS | RPMI 5 mM glucose + 10% dialyzed FBS
[4], 0.000781 µM | 116 | – | 106
[4], 0.00234 µM | 121 | – | 128
[4], 0.00702 µM | 130 | – | 121
[4], 0.0211 µM | 122 | – | 116
[4], 0.0632 µM | 133 | – | 135
[4], 0.19 µM | 139 | – | 139
[4], 0.569 µM | 135 | – | 146
[4], 1.71 µM | 119 | – | 127
[4], 5.12 µM | 128 | – | 122
[4], 15.4 µM | 115 | – | 137
[4], 46.1 µM | 129 | – | 125
[6], 0.000781 µM | 117 | 118 | –
[6], 0.00234 µM | 123 | 124 | –
[6], 0.00702 µM | 151 | 135 | –
[6], 0.0211 µM | 147 | 165 | –
[6], 0.0632 µM | 151 | 144 | –
[6], 0.19 µM | 135 | 148 | –
[6], 0.569 µM | 147 | 148 | –
[6], 1.71 µM | 161 | 139 | –
[6], 5.12 µM | 135 | 153 | –
[6], 15.4 µM | 131 | 141 | –
[6], 46.1 µM | 113 | 126 | –
